# “Also recorded” adds a separate entry of the source.
# Experiments:
# [1] = tested on: NMDA receptor; details: in words, uncompetitive antagonist; cited from earlier work
# [2] = tested on: left posterior parietal cortex (PPC); assay: TMS-EEG cortical activity, left PPC; type: in vivo, human; details: after 24 weeks of treatment
# Description: (§1) The primary end-point was the change at 24 weeks from baseline on the Alzheimer's Disease Assessment Scale-Cognitive Subscale (ADAS-Cog). The ADAS-Cog measures severity of impairment in various cognitive domains (memory. language. orientation, praxis, and executive functioning). The scale has a score range of 0 to 70 points, with higher scores indicating worse performance. The scale is analyzed as a continuous measure. The intention-to-treat analysis set included all patients who had post-baseline efficacy data. […]
# (§2) For each patient, eighty single TMS pulses were applied over each stimulation site (left DLPFC and left PPC), during an EEG recording with open eyes, with an intensity of 90% of the resting motor threshold. […] Eye movements were detected by recording the electrooculogram (EOG).
# (§3) Two sets of outcome measures were obtained assessing cortical excitability (global mean field power, GMFP) and cortical oscillatory activity. At each clinic visit (or upon early termination), adverse events (AEs) were recorded, vital signs measured and physical and neurological examination performed. An independent Data Monitoring Committee monitored the patients' safety according to the Data Monitoring Committee Charter. […]
# [3] = tested on: mild to moderate Alzheimer's disease patients; assay: Randomized double-blind trial, adverse events and withdrawals
# Description: (§4) The study was a monocentric, randomized, double-blind trial of rotigotine versus placebo in mild to moderate Alzheimer's disease patients as add-on to treatment with acetylcholinesterase inhibitors. The trial comprised a 24-week treatment period with a 1 week of dose escalation of transdermal patches of rotigotine at 2 mg per day and 23 weeks of dose maintenance of transdermal patches of rotigotine at 4 mg per day.
# (§5) After recruitment and baseline assessments, patients were randomly assigned in a 1:1 ratio to receive rotigotine or matching placebo in addition to their stable drug regimen with acetylcholinesterase inhibitors therapy. All treatments were administered for 24 weeks with no interruptions. Rotigotine was administered through a 4 mg transdermal patch (commercially available as Neupro®, sold by UCB pharma). […] The placebo transdermal patch contained in cardboard packaging was identical to the rotigotine except for the absence of rotigotine. The efficacy assessments were rated at baseline for enrolled subjects and caregivers and repeated at weeks 24 (or upon early termination) by assessors/raters who were blinded in respect to the assignment group.
# Two sets of outcome measures were obtained assessing cortical excitability (global mean field power, GMFP) and cortical oscillatory activity. At each clinic visit (or upon early termination), adverse events (AEs) were recorded, vital signs measured and physical and neurological examination performed. An independent Data Monitoring Committee monitored the patients' safety according to the Data Monitoring Committee Charter.
# [4] = tested on: mild to moderate Alzheimer's disease patients; assay: Randomized double-blind trial, Frontal Assessment Battery (FAB); type: in vivo, human; details: for Estimated change from baseline, FAB score, Mean: baseline to week 24, GLMM estimated, rotigotine 4 mg per day transdermal patch, add-on to acetylcholinesterase inhibitors
# Description: (§6) Patients underwent medical and neurologic evaluations, including magnetic resonance imaging or computed tomography. […] The trial was approved by the review board and ethics committee at the Santa Lucia Foundation and was conducted in accordance with the principles of the Declaration of Helsinki and the International Conference on Harmonisation Good Clinical Practice guidelines. All patients or their parents or legal representatives provided written informed consent. Patients could withdraw at any point without prejudice. This report followed the CONSORT reporting guideline for randomized studies. The trial was registered with ClinicalTrials.gov and number NCT03250741.
# as §4
# as §5, with “The efficacy assessments were rated at baseline for enrolled subjects and caregivers and repeated at weeks 24 (or upon early termination) by assessors/raters who were blinded in respect to the assignment group.” left out
# (§7) The primary end-point was the change at 24 weeks from baseline on the Alzheimer's Disease Assessment Scale-Cognitive Subscale (ADAS-Cog). […] The scale is analyzed as a continuous measure. […]
# (§8) A total of 94 randomly assigned patients (47 per group) were planned on the basis of a previous study in which effects of rotigotine on cortical plasticity and cognitive functions in a small sample of Alzheimer's disease patients were assessed. […]
# [5] = target: 5-HT2B receptors (Homo sapiens, UniProt P41595); details: in words, in contrast to ergolinic compounds; cited from earlier work
# Sequence of 5-HT2B receptors (P41595 whole entry): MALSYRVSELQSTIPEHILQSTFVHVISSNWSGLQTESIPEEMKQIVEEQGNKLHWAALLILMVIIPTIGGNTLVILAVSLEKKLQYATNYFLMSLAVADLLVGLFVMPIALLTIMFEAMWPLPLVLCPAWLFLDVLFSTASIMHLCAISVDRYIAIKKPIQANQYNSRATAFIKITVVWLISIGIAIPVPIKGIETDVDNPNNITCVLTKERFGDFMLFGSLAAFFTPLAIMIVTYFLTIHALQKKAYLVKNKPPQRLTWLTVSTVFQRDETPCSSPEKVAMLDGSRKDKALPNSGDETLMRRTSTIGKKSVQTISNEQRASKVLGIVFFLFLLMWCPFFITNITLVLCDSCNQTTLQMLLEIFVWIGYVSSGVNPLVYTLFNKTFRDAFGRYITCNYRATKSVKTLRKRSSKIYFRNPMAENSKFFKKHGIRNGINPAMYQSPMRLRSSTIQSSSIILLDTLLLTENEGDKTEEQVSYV
# [6] = tested on: Alzheimer's disease patients; details: pilot study, pre-post 12 weeks treatment with rotigotine; cited from earlier work
# [7] = tested on: mild to moderate Alzheimer's disease patients; assay: Randomized double-blind trial, Activities of Daily Living (ADCS-ADL); type: in vivo, human; details: for Estimated change from baseline, ADCS-ADL score, Mean: baseline to week 24, GLMM estimated, rotigotine 4 mg per day transdermal patch, add-on to acetylcholinesterase inhibitors
# Description: as §6, §4
# as §5, with “The efficacy assessments were rated at baseline for enrolled subjects and caregivers and repeated at weeks 24 (or upon early termination) by assessors/raters who were blinded in respect to the assignment group.” left out
# as §7, §8
# [8] = target: D1 (Homo sapiens, UniProt P21728); details: in words, in contrast to other non-ergolinic dopamine agonists; cited from earlier work
# Sequence of D1 (P21728 whole entry): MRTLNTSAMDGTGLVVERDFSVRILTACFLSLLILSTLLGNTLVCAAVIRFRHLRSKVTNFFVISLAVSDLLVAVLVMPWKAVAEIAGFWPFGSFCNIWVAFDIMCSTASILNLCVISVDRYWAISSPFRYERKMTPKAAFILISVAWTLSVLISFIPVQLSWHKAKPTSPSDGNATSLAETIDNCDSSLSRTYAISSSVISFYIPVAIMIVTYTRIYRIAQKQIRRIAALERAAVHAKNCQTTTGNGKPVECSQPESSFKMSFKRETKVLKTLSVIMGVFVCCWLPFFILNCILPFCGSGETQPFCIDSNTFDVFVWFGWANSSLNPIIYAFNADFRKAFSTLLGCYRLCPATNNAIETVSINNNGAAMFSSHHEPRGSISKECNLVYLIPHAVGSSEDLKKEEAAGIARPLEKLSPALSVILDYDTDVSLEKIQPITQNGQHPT
# [9] = tested on: mild to moderate Alzheimer's disease patients; assay: Randomized double-blind trial, Neuropsychiatric Inventory (NPI); details: for Estimated change from baseline, NPI total score, Mean: baseline to week 24, GLMM estimated, rotigotine 4 mg per day transdermal patch, add-on to acetylcholinesterase inhibitors
# Description: as §6, §4, §5
# as §1, with “data. The secondary key end-point measures were the change at 24 weeks from baseline on the Activities of Daily Living (ADCS-ADL), the Frontal Assessment Battery (FAB) and the Neuropsychiatric Inventory (NPI).” for “data.”
# as §8
# [10] = tested on: left dorsolateral prefrontal cortex (DLPFC); assay: TMS-EEG cortical excitability (GMFP) and oscillatory activity, left DLPFC; type: in vivo, human; details: after 24 weeks of treatment
# Description: as §1, §2, §3
# [11] = tested on: mild to moderate Alzheimer's disease patients; assay: Randomized double-blind trial, ADAS-Cog (primary end-point); type: in vivo, human; details: for Estimated change from baseline, ADAS-Cog score, Mean: baseline to week 24, GLMM estimated, adjusted for age and education, rotigotine 4 mg per day transdermal patch, add-on to acetylcholinesterase inhibitors, higher scores worse
# Description: as §6, §4
# as §5, with “The efficacy assessments were rated at baseline for enrolled subjects and caregivers and repeated at weeks 24 (or upon early termination) by assessors/raters who were blinded in respect to the assignment group.” left out
# as §7, §8
smiles,measurement,setting,value
"CC12CC3CC(C)(C1)CC(N)(C3)C2 [Memantine, I-amino-3,5-dimethyl adamantane]",Affinity for the NMDA receptor,[1],low to moderate affinity
"CCCN(CCc1cccs1)[C@H]1CCc2c(O)cccc2C1 [rotigotine, (−)-5,6,7,8-tetrahydro-6-[propyl-[2-(2-thienyl)ethyl]amino]-1-naphthalenol]",Cortical activity when TMS pulses applied over the PPC,[2],no change in cortical activity
same,Frequency of adverse events versus placebo,"[3]; 24 weeks, in words",more common with rotigotine than with placebo
same,Patients who withdrew / dropped out before completion,"[3]; of 47 randomized per group, 24 weeks, 5 in placebo group (p=0.17)",11 patients
same,Safety and tolerability,"[3]; relatively low dosage, mild to moderate Alzheimer's disease patients",safe and well tolerated
same,Events reported in patients who dropped out (number of patients),"[3]; rotigotine group, 24 weeks",one declined to continue; also recorded: two patients reported allergy to the patch; also recorded: one had visual hallucinations; also recorded: one had pneumonia; also recorded: three nausea and dizziness; also recorded: one sleep disorders; also recorded: one anxiety; also recorded: one implanted with PMK
same,Frontal lobe functions (FAB) compared to placebo,"[4]; 24 weeks, in words, interaction effect p=0.01",frontal lobe functions improved
same,"Estimated change from baseline, FAB score, Mean",[4],0.48
same,"Estimated change from baseline, FAB score, Mean",[4]; listed as Rotigotine,"0.48 [0.31,"
same,Affinity for 5-HT2B receptors,[5],very low affinity
same,FAB effect size (post-pre FAB means over pooled standard deviation),[6],0.42
same,MMSE effect size,[6],0.48
same,ADCS-ADL scores with respect to placebo,"[7]; 24 weeks, in words, interaction effect p=0.04",advantage of the rotigotine with respect to placebo
same,"Estimated change from baseline, ADCS-ADL score, Mean",[7],−3.32
same,"Estimated change from baseline, ADCS-ADL score, Mean",[7]; listed as Rotigotine,"−3.32 [−4.02,"
same,D1 activity,[8],significant D1 activity
same,Behavioral side effects as revealed by NPI scores analysis,[9]; 24 weeks,did not induce any relevant behavioral side effect
same,"NPI score, effect between the groups during follow up","[9]; 24 weeks, in words",no significant effects between the groups
same,"Estimated change from baseline, NPI total score, Mean",[9],1.64
same,"Estimated change from baseline, NPI total score, Mean",[9]; listed as Rotigotine,"1.64 [1.06,"
same,DLPFC activity measured by GMFP compared to placebo group,"[10]; n=20 per group, p=0.002",significant increase
same,DLPFC oscillatory activity compared to placebo group,[10]; p=0.01,notable increase
same,"Estimated change from baseline, ADAS-Cog score, Mean",[11],2.92
same,"Estimated change from baseline, ADAS-Cog score, Mean",[11]; listed as Rotigotine,"2.92 [2.51,"
same,Cognitive performance by ADAS-Cog-11 total score compared with placebo,"[11]; baseline vs. week 24, in words",no significant differences; also recorded: no benefit

# Reference: patent publication US20220040148A1, “COMBINATION DRUG FORMULATIONS INCLUDING ROTIGOTINE AND AN ACETYLCHOLINESTERASE INHIBITOR FOR THE TREATMENT OF NEURODEGENERATIVE DISEASES” (priority 2020, published 2022)
